Test results reported in ChEMBL document CHEMBL5579888, “A Comparative Study on the DNA Interactions and Biological Activities of Benzophenanthridine and Protoberberine Alkaloids” (J Nat Prod, 2024).
Active and inactive are the calls of the source. The calls are words filed in the database; no cut-off is given here.

Columns and labels:
Quadruplex DNA [1] = assay: Displacement of ThT from human G4-quadruplex Bcl2 DNA 5'- CGGGCGCGGGAGGAAGGGGGCGGGAGC-3' incubated for 0.5 hrs by SpectraMax M2 microplate reader analysis; format: nucleic-acid assay
Quadruplex DNA [2] = assay: Binding affinity to human G4-quadruplex Bcl2 DNA 5'- CGGGCGCGGGAGGAAGGGGGCGGGAGC-3' at 20 uM by UV-Visible absorption spectroscopic analysis; format: nucleic-acid assay
Quadruplex DNA [3] = assay: Binding affinity to human G4-quadruplex KRAS DNA 5'- AGGGCGGTGTGGGAAGAGGGAAGAGGGGGAGG-3' at 20 uM by UV-Visible absorption spectroscopic analysis; format: nucleic-acid assay
A-375 [4] = assay: Induction of apoptosis in human A-375 cells assessed assessed as viable cells at 5 uM incubated for 24 hrs by Annexin V-Elab Fluor 647/propidium iodide staining based flow cytometry (reference value: 91.1 %); format: functional; conditions: read-out: Activity
Quadruplex DNA [5] = assay: Binding affinity to human G4-quadruplex 22AG DNA 5'- AGGGTTAGGGTTAGGGTTAGGG -3' at 20 uM by UV-Visible absorption spectroscopic analysis; format: nucleic-acid assay
Calf thymus DNA = assay: Displacement of Hoechst 33342 from calf thymus DNA incubated for 0.5 hrs by SpectraMax M2 microplate reader analysis; format: nucleic-acid assay, Bos taurus
A-375 [6] = assay: Induction of cell cycle arrest in human A-375 cells assessed assessed as cell accumulation at S phase at 5 uM incubated for 24 hrs by propidium iodide staining based flow cytometry (reference value: 30.05 %); format: functional
Quadruplex DNA [7] = assay: Binding affinity to human G4-quadruplex KRAS DNA 5'- AGGGCGGTGTGGGAAGAGGGAAGAGGGGGAGG-3' at 10 uM by CD spectra analysis; format: nucleic-acid assay
A-375 [8] = assay: Inhibition of RNA synthesis in human A-375 cells at 5 uM incubated for 24 hrs by EU incorporation based flow cytometry analysis; format: functional, cell-based
Salmon testes DNA = assay: Displacement of Hoechst 33342 from salmon sperm DNA incubated for 0.5 hrs by SpectraMax M2 microplate reader analysis; format: nucleic-acid assay, Salmo salar
Quadruplex DNA [9] = assay: Binding affinity to human G4-quadruplex c-kit2 DNA 5'- CGGGCGGGCGCGAGGGAGGGT-3' at 20 uM by UV-Visible absorption spectroscopic analysis; format: nucleic-acid assay
Quadruplex DNA [10] = assay: Binding affinity to human G4-quadruplex VEGF DNA 5'- GGGCGGGCCGGGGGCGGG-3' at 20 uM by UV-Visible absorption spectroscopic analysis; format: nucleic-acid assay
A-375 [11] = assay: Induction of cell cycle arrest in human A-375 cells assessed assessed as cell accumulation at G0/G1 phase at 5 uM incubated for 24 hrs by propidium iodide staining based flow cytometry (reference value: 54.25 %); format: functional
Quadruplex DNA [12] = assay: Displacement of ThT from human G4-quadruplex KRAS DNA 5'- AGGGCGGTGTGGGAAGAGGGAAGAGGGGGAGG-3' incubated for 0.5 hrs by SpectraMax M2 microplate reader analysis; format: nucleic-acid assay
Quadruplex DNA [13] = assay: Binding affinity to human G4-quadruplex Oxy28 DNA 5'- GGGGTTTTGGGGTTTTGGGGTTTTGGGG -3' at 20 uM by UV-Visible absorption spectroscopic analysis; format: nucleic-acid assay
A-375 [14] = assay: Induction of apoptosis in human A-375 cells assessed assessed as necrotic cells at 5 uM incubated for 24 hrs by Annexin V-Elab Fluor 647/propidium iodide staining based flow cytometry (reference value: 1.45 %); format: functional
Quadruplex DNA [15] = assay: Displacement of ThT from human G4-quadruplex c-kit2 DNA 5'- CGGGCGGGCGCGAGGGAGGGT-3' incubated for 0.5 hrs by SpectraMax M2 microplate reader analysis; format: nucleic-acid assay
A-375 [16] = assay: Induction of apoptosis in human A-375 cells assessed assessed as late apoptotic cells at 5 uM incubated for 24 hrs by Annexin V-Elab Fluor 647/propidium iodide staining based flow cytometry (reference value: 6.31 %); format: functional
Quadruplex DNA [17] = assay: Binding affinity to human G4-quadruplex Pu27 DNA 5'- TGGGGAGGGTGGGGAGGGTGGGGAAGG-3' at 20 uM by UV-Visible absorption spectroscopic analysis; format: nucleic-acid assay
dsDNA [18] = assay: Binding affinity to double stranded DNA ssab (unknown origin) at 20 uM by UV-Visible absorption spectroscopic analysis; format: nucleic-acid assay
A-375 [19] = assay: Induction of cell cycle arrest in human A-375 cells assessed assessed as cell accumulation at G2/M phase at 5 uM incubated for 24 hrs by propidium iodide staining based flow cytometry (reference value: 15.70 %); format: functional
Quadruplex DNA [20] = assay: Binding affinity to human G4-quadruplex Oxy28 DNA 5'- GGGGTTTTGGGGTTTTGGGGTTTTGGGG -3' at 10 uM by CD spectra analysis; format: nucleic-acid assay
Quadruplex DNA [21] = assay: Displacement of ThT from human G4-quadruplex Pu27 DNA 5'- TGGGGAGGGTGGGGAGGGTGGGGAAGG-3' incubated for 0.5 hrs by SpectraMax M2 microplate reader analysis; format: nucleic-acid assay
Quadruplex DNA [22] = assay: Displacement of ThT from human G4-quadruplex VEGF DNA 5'- GGGCGGGCCGGGGGCGGG-3' incubated for 0.5 hrs by SpectraMax M2 microplate reader analysis; format: nucleic-acid assay
A-375 [23] = assay: Inhibition of DNA synthesis in human A-375 cells at 5 uM incubated for 24 hrs by Edu incorporation based flow cytometry analysis; format: functional, cell-based
dsDNA [24] = assay: Displacement of Hoechst 33342 from double stranded DNA ssab (unknown origin) incubated for 0.5 hrs by SpectraMax M2 microplate reader analysis; format: nucleic-acid assay
Quadruplex DNA [25] = assay: Displacement of ThT from human G4-quadruplex Oxy28 DNA 5'- GGGGTTTTGGGGTTTTGGGGTTTTGGGG -3' incubated for 0.5 hrs by SpectraMax M2 microplate reader analysis; format: nucleic-acid assay
A-375 [26] = assay: Induction of apoptosis in human A-375 cells assessed assessed as early apoptotic cells at 5 uM incubated for 24 hrs by Annexin V-Elab Fluor 647/propidium iodide staining based flow cytometry (reference value: 1.14 %); format: functional
A-375 [27] = assay: Induction of DNA damage in human A-375 cells assessed as appearance of long DNA tails at 5 uM incubated for 24 hrs by comet assay; format: functional, cell-based
Quadruplex DNA [28] = assay: Displacement of ThT from human G4-quadruplex 22AG DNA 5'- AGGGTTAGGGTTAGGGTTAGGG -3' incubated for 0.5 hrs by SpectraMax M2 microplate reader analysis; format: nucleic-acid assay

## COc1cc2c[n+](C)c3c4cc5c(cc4ccc3c2cc1OC)OCO5 [NITIDINE]
Quadruplex DNA [1]
  Kd: 1520 nM
Quadruplex DNA [2]
  Activity: Active
Quadruplex DNA [3]
  Activity: Active
A-375 [4]
  viability at 5 µM: 30.8%
Quadruplex DNA [5]
  Activity: Active
Calf thymus DNA
  DC50: 14400 nM
A-375 [6]
  Activity: 30.21%
Quadruplex DNA [7]
  Activity: inactive
A-375 [8]
  inhibition: Active
Salmon testes DNA
  DC50: 10800 nM
Quadruplex DNA [9]
  Activity: Active
Quadruplex DNA [10]
  Activity: Active
A-375 [11]
  Activity: 40.5%
Quadruplex DNA [12]
  DC50: 9080 nM
Quadruplex DNA [13]
  Activity: Active
A-375 [14]
  Activity: 6.7%
Quadruplex DNA [15]
  DC50: 1050 nM
A-375 [16]
  Activity: 60.4%
Quadruplex DNA [17]
  Activity: Active
dsDNA [18]
  Activity: Active
A-375 [19]
  Activity: 29.3%
Quadruplex DNA [20]
  Activity: inactive
Quadruplex DNA [21]
  DC50: 990 nM
Quadruplex DNA [22]
  DC50: 590 nM
A-375 [23]
  inhibition: Active
dsDNA [24]
  DC50: 2970 nM
Quadruplex DNA [25]
  DC50: 1980 nM
A-375 [26]
  Activity: 2.03%
A-375 [27]
  Activity: Active
Quadruplex DNA [28]
  DC50: 15500 nM
